According to patent publication US20250255847A1, “[…]s: Novel Drugs for Triple Negative Breast Cancer” (SIMMARON RSEARCH INC, priority 2024, published 2025):

Experiments:
[1] = target: T1, DNA binding activity of STAT3 (Homo sapiens, UniProt P40763); experiment: Electrophoretic mobility shift assay (EMSA) in nuclear extracts; type: cell-based; conditions: EGF (20 ng/mL)-stimulated MDA-MB-468 nuclear extract, SIM-1 20 nM (FIG. 9B)
T1 construct: endogenous in cells; host or cells: MDA-MB-468 (nuclear extract)
T1 sequence (P40763 2-770 limits assumed): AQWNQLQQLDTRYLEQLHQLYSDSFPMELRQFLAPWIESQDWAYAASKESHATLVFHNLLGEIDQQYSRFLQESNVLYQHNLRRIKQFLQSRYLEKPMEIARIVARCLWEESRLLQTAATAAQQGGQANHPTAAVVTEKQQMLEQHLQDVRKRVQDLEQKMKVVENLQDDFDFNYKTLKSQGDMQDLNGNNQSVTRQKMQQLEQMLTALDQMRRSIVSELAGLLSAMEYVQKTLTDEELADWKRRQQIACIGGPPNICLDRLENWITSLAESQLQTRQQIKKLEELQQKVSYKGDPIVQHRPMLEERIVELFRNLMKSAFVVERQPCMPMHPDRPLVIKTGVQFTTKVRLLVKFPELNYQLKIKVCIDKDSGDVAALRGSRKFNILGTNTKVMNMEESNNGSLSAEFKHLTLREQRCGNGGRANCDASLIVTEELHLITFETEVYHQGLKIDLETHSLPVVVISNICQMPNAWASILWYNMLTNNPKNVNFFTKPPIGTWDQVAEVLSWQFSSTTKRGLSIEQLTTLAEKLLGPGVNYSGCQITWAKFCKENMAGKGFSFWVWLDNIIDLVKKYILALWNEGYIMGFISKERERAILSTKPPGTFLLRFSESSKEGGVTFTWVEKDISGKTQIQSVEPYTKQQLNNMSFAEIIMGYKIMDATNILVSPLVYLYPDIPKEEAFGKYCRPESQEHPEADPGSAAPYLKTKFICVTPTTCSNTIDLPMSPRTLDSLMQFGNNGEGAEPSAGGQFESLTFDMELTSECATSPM
Description: (§1) FIG. 9 illustrates an embodiment of the present invention and illustrates promoter recruitment assay of STAT3 in IL6 promoter. (A) MDA-MB-468 cells were treated with 5, 10, and 20 ng/mL doses of EGF for 5 hrs followed by immunoblot (IB) analyses of Y705 phospho and S727 phospho STAT3 in nuclear extracts. Histone 3 ([…]) IB was run as control. (B) EMSA analyses were performed in nuclear extracts of EGF (20 ng/mL)- and EGF+SIM-1 (20 nM)-treated MDA-MB-468 cells against the STAT3-specific oligonucleotide probe (Li-Cor bioscience; Cat #P/N: 829-07922) or SEQ ID NO: 1 and resolved in 6% DNA retardation gel (Invitrogen). (C) Chromatin immunoprecipitation assay was performed in the nuclear extracts of MDA-MB-468 cells treated with EGF or EGF+SIM-1 for 5 hrs. Y705P STAT3 antibody was used for chromatin immunoprecipitation and IgG precipitation was performed as a control.
Electrophoretic Mobility Shift Assay (EMSA). EMSA was performed in […] as described before. […] were treated with 25 ng/mL EGF alone or together with SIM1 (5 nM) for 5 hrs followed by nuclear fractionation with nuclear extraction kit (Abcam). […]

[2] = tested on: Y705P STAT3 recruitment in IL6 promoter; experiment: Chromatin immunoprecipitation of STAT3 response element in IL6 promoter; type: cell-based, human; conditions: 10 ng/mL EGF + 20 nM compound, 5 hrs, MDA-MB-468
Description: as §1, with “(C) Chromatin immunoprecipitation assay was performed in the nuclear extracts of MDA-MB-468 cells treated with EGF or EGF+SIM-1 for 5 hrs. Y705P STAT3 antibody was used for chromatin immunoprecipitation and IgG precipitation was performed as a control.” left out
Third, to further confirm the promoter recruitment activity of Y705PSTAT3 in the IL6 promoter, chromatin immunoprecipitation assay of STAT3-response element in the IL6 promoter was performed using primer sets described under “Promoter analysis and Chromatin Immunoprecipitation (ChIP) assay” hereinabove. Briefly, MDA-MB-468 cells were incubated with 10 ng/mL EGF, EGF+SIM-1 (20 nM), and EGF+SIM-2 (20 nM) for 5 hrs followed by performing an immunoprecipitation (IP) of DNA-bound STAT3 with Y705P STAT3-specific antibody and then the precipitated DNA by PCR analysis was analyzed to identify STAT3 response element (˜121 bp long) in IL6 promoter.

| SMILES | DNA binding activity of STAT3 [1] | promoter recruitment activity of Y705P STAT3 in IL6 promoter [2] |
| --- | --- | --- |
| O=C(O)CCC(=O)NCc1csc2ccc(Cl)cc12 [SIM-1, 4-[(5-chloro-1-benzothiophen-3-yl)methylamino]-4-oxobutanoic acid] | markedly inhibited | significantly attenuated |
| CCOC(=O)c1c(NC(C)=O)sc2c(Cl)c(/C=N/O)ccc12 [SIM-2, ethyl 2-acetamido-7-chloro-6-(hydroxyiminomethyl)-1-benzothiophene-3-carboxylate] |  | significantly attenuated |
